# Reference: PubChem BioAssay AID330 (DTP/NCI, 2004)
# Several values for one entry are separate records, joined by “and”; a condition that tells them apart may be missing. Equal entries are not always repeated. Inconclusive results and toxic doses are left out.
# Tested on: P388 leukemia ip, CD2F1 mice, survival T/C
# Test: NCI In Vivo Anticancer Drug Screen. Data for tumor model P388 Leukemia (intraperitoneal) in CD2F1 (CDF1) mice
# Settings: endpoint: median survival time, higher = longer survival
# Outline: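 Mice carrying the transplanted tumor received test compound or vehicle. Survival was recorded in each group, and the value is the treated-group measurement divided by that of the vehicle-treated control group.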
# [1] = dose: 50.0 mg/kg/injection, schedule: Q01DX005 (ip), vehicle: saline
# [2] = dose: 100.0 mg/kg/injection, schedule: Q01DX005 (ip), vehicle: saline
# [3] = dose: 60.0 mg/kg/injection, schedule: Q01DX005 (ip), vehicle: saline
# [4] = dose: 120.0 mg/kg/injection, schedule: Q01DX005 (ip), vehicle: saline
# [5] = dose: 12.5 mg/kg/injection, schedule: Q01DX005 (ip), vehicle: saline with Tween-80
# [6] = dose: 25.0 mg/kg/injection, schedule: Q01DX005 (ip), vehicle: saline with Tween-80
# [7] = dose: 60.0 mg/kg/injection, schedule: Q01DX005 (ip), vehicle: saline with Tween-80
# [8] = dose: 120.0 mg/kg/injection, schedule: Q01DX005 (ip), vehicle: saline with Tween-80
# [9] = dose: 240.0 mg/kg/injection, schedule: Q01DX005 (ip), vehicle: saline with Tween-80
# [10] = dose: 50.0 mg/kg/injection, schedule: Q01DX009 (ip), vehicle: Klucel (hydroxypropylcellulose) (HPC)
# [11] = dose: 100.0 mg/kg/injection, schedule: Q01DX009 (ip), vehicle: Klucel (hydroxypropylcellulose) (HPC)
structure (smiles),measurement,setting,value
O=[N+]([O-])c1nccn1CCCO,T/C,"dose: 12.5 mg/kg/injection, schedule: Q01DX009 (ip), vehicle: water",98 % of control
same,T/C,"dose: 25.0 mg/kg/injection, schedule: Q01DX009 (ip), vehicle: water",97 % of control
same,T/C,"dose: 50.0 mg/kg/injection, schedule: Q01DX009 (ip), vehicle: water",100 % of control
same,T/C,"dose: 100.0 mg/kg/injection, schedule: Q01DX009 (ip), vehicle: water",103 % of control
same,T/C,"dose: 200.0 mg/kg/injection, schedule: Q01DX009 (ip), vehicle: water",100 % of control
COC(=O)C(=C\c1nc2ccc([N+](=O)[O-])cc2s1)/C(C(=O)OC)=C1\CCCN1C,T/C,[1],100 % of control
same,T/C,[2],97 % of control
same,T/C,"dose: 200.0 mg/kg/injection, schedule: Q01DX005 (ip), vehicle: saline",97 % of control
[CH3][Sn]([CH3])([S]CCS(=O)(=O)O)[S]CCS(=O)(=O)O,T/C,"dose: 15.0 mg/kg/injection, schedule: Q01DX005 (ip), vehicle: saline",120 % of control
same,T/C,"dose: 30.0 mg/kg/injection, schedule: Q01DX005 (ip), vehicle: saline",98 % of control
same,T/C,[3],107 % of control
same,T/C,[4],121 % of control
CCNC(CC)CCCNc1cc(OC)cc2cccnc12 (configuration not stated),T/C,"dose: 6.25 mg/kg/injection, schedule: Q01DX005 (ip), vehicle: saline with Tween-80",106 % of control
same,T/C,[5],98 % of control
same,T/C,[6],102 % of control
COc1cccc2c1C(=O)c1c(O)c3c(c(O)c1C2=O)C[C@@](O)(C(C)=O)CC3OC1CC(NC(=O)CCN)C(O)C(C)O1 (some centres not stated),T/C,"dose: 6.25 mg/kg/injection, schedule: Q04DX003 (ip), vehicle: saline",97 % of control
same,T/C,"dose: 12.5 mg/kg/injection, schedule: Q04DX003 (ip), vehicle: saline",100 % of control
same,T/C,"dose: 25.0 mg/kg/injection, schedule: Q04DX003 (ip), vehicle: saline",103 % of control
same,T/C,"dose: 50.0 mg/kg/injection, schedule: Q04DX003 (ip), vehicle: saline",97 % of control
CCCCCCCCCCCCC(=O)CCCCC(=O)OC1OCC23OC2C2CC(C)(C)CC2C2(C)CC123 (configuration not stated),T/C,"dose: 10.0 mg/kg/injection, schedule: Q01DX005 (ip), vehicle: olive oil, sesame oil, peanut oil",105 % of control
same,T/C,"dose: 20.0 mg/kg/injection, schedule: Q01DX005 (ip), vehicle: olive oil, sesame oil, peanut oil",95 % of control
same,T/C,"dose: 40.0 mg/kg/injection, schedule: Q01DX005 (ip), vehicle: olive oil, sesame oil, peanut oil",101 % of control
same,T/C,"dose: 80.0 mg/kg/injection, schedule: Q01DX005 (ip), vehicle: olive oil, sesame oil, peanut oil",94 % of control
Cc1ccc(C)c(S(=O)(=O)Nc2c([N+](=O)[O-])cc([N+](=O)[O-])c3ccccc23)c1,T/C,"dose: 50.0 mg/kg/injection, schedule: Q04DX002 (ip), vehicle: saline with Tween-80",95 % of control
same,T/C,"dose: 100.0 mg/kg/injection, schedule: Q04DX002 (ip), vehicle: saline with Tween-80",88 % of control
O=C1OC(Nc2ccccc2)C(Cl)=C1Cl (configuration not stated),T/C,[7],102 % of control
same,T/C,[8],104 % of control
same,T/C,[9],103 % of control
ClCCN(CCCl)c1ccc(/C=N/Nc2ccnc3ccccc23)cc1,T/C,"dose: 0.39 mg/kg/injection, schedule: Q01DX009 (ip), vehicle: DMSO",92 % of control
same,T/C,"dose: 0.78 mg/kg/injection, schedule: Q01DX009 (ip), vehicle: DMSO",87 % of control
same,T/C,"dose: 1.56 mg/kg/injection, schedule: Q01DX009 (ip), vehicle: DMSO",90 % of control
COc1ccc(N=Nc2c(C)nn(C(N)=S)c2C)cc1,T/C,"dose: 100.0 mg/kg/injection, schedule: Q04DX002 (ip), vehicle: Klucel (hydroxypropylcellulose) (HPC)",93 % of control
same,T/C,"dose: 200.0 mg/kg/injection, schedule: Q04DX002 (ip), vehicle: Klucel (hydroxypropylcellulose) (HPC)",92 % of control
same,T/C,"dose: 400.0 mg/kg/injection, schedule: Q04DX002 (ip), vehicle: Klucel (hydroxypropylcellulose) (HPC)",94 % of control
O=P(c1ccccc1)(c1ccccc1)c1ccccc1OCCCO,T/C,"dose: 50.0 mg/kg/injection, schedule: Q01DX005 (ip), vehicle: Klucel (hydroxypropylcellulose) (HPC)",99 % of control
same,T/C,"dose: 100.0 mg/kg/injection, schedule: Q01DX005 (ip), vehicle: Klucel (hydroxypropylcellulose) (HPC)",100 % of control
same,T/C,"dose: 200.0 mg/kg/injection, schedule: Q01DX005 (ip), vehicle: Klucel (hydroxypropylcellulose) (HPC)",97 % of control
O=c1[nH]/c(=C/c2ccccc2)c(=O)[nH]/c1=C/C=C/c1ccccc1,T/C,"dose: 25.0 mg/kg/injection, schedule: Q01DX009 (ip), vehicle: Klucel (hydroxypropylcellulose) (HPC)",107 % of control
same,T/C,[10],104 % of control
same,T/C,[11],102 % of control
S=C1SCN(c2ccc3c(c2)OCO3)CN1c1ccc2c(c1)OCO2,T/C,[10],96 % of control
same,T/C,[11],100 % of control
same,T/C,"dose: 200.0 mg/kg/injection, schedule: Q01DX009 (ip), vehicle: Klucel (hydroxypropylcellulose) (HPC)",96 % of control
COc1ccc(-c2coc3c4c(ccc3c2=O)OCO4)cc1OC,T/C,"dose: 9.75 mg/kg/injection, schedule: Q01DX005 (ip), vehicle: Klucel (hydroxypropylcellulose) (HPC)",94 % of control
same,T/C,"dose: 19.5 mg/kg/injection, schedule: Q01DX005 (ip), vehicle: Klucel (hydroxypropylcellulose) (HPC)",94 % of control
same,T/C,"dose: 39.0 mg/kg/injection, schedule: Q01DX005 (ip), vehicle: Klucel (hydroxypropylcellulose) (HPC)",87 % of control
same,T/C,"dose: 78.0 mg/kg/injection, schedule: Q01DX005 (ip), vehicle: Klucel (hydroxypropylcellulose) (HPC)",86 % of control
CCOC(=O)C1C2CCCCC21OC (configuration not stated),T/C,[7],106 % of control
same,T/C,[8],107 % of control
same,T/C,[9],110 % of control
CCOC(=S)c1cccc(C(=S)OCC)c1,T/C,"dose: 50.0 mg/kg/injection, schedule: Q01DX009 (ip), vehicle: saline with Tween-80",104 % of control
same,T/C,"dose: 100.0 mg/kg/injection, schedule: Q01DX009 (ip), vehicle: saline with Tween-80",100 % of control
same,T/C,"dose: 200.0 mg/kg/injection, schedule: Q01DX009 (ip), vehicle: saline with Tween-80",103 % of control
O=C(c1ccc(Cl)cc1)n1c(Cl)c(/C=N\Nc2ccccc2[N+](=O)[O-])c2ccccc21,T/C,"dose: 100.0 mg/kg/injection, schedule: Q04DX003 (ip), vehicle: saline with Tween-80",93 % of control
same,T/C,"dose: 200.0 mg/kg/injection, schedule: Q04DX003 (ip), vehicle: saline with Tween-80",90 % of control
same,T/C,"dose: 400.0 mg/kg/injection, schedule: Q04DX003 (ip), vehicle: saline with Tween-80",92 % of control
COc1cc2c(CCNC(C)=O)csc2cc1Cl,T/C,[7],97 % of control
same,T/C,[8],99 % of control
same,T/C,[9],105 % of control
NC(N)=NCCSCc1ccc2ccccc2n1,T/C,[1],94 % of control
same,T/C,[2],101 % of control
C/C(=C\C(=O)c1ccccc1)Nc1noc(-c2ccccc2)n1,T/C,[7],97 % of control
same,T/C,[8],94 % of control
same,T/C,[9],96 % of control
COc1cc2c(c(OC)c1OC)-c1cc3c(cc1C(OC1OC4COC(C)OC4C(O)C1O)C1COC(=O)C1C2)OCO3 (configuration not stated),T/C,"dose: 17.5 mg/kg/injection, schedule: Q01DX005 (ip), vehicle: Klucel (hydroxypropylcellulose) (HPC)",103 % of control
same,T/C,"dose: 35.0 mg/kg/injection, schedule: Q01DX005 (ip), vehicle: Klucel (hydroxypropylcellulose) (HPC)",101 % of control
same,T/C,"dose: 70.0 mg/kg/injection, schedule: Q01DX005 (ip), vehicle: Klucel (hydroxypropylcellulose) (HPC)",119 % of control
same,T/C,"dose: 140.0 mg/kg/injection, schedule: Q01DX005 (ip), vehicle: Klucel (hydroxypropylcellulose) (HPC)",119 % of control
Cc1cc(NCCCCNCCCNc2cc(C)nc3cc(N)ccc23)c2ccc(N)cc2n1,T/C,"dose: 12.5 mg/kg/injection, schedule: Q01DX009 (ip), vehicle: other",150 % of control
same,T/C,"dose: 25.0 mg/kg/injection, schedule: Q01DX009 (ip), vehicle: other",175 % of control
O=C(N/C(=C\c1ccccc1Cl)c1nc2ccccc2s1)c1ccccc1,T/C,[7],113 % of control
same,T/C,[8],113 % of control
same,T/C,[9],102 % of control
O=C1CC(Cl)(CS(F)(F)(F)(F)F)O1 (configuration not stated),T/C,"dose: 12.5 mg/kg/injection, schedule: Q01DX005 (ip), vehicle: saline + alcohol",100 % of control
same,T/C,[5],104 % of control
same,T/C,"dose: 25.0 mg/kg/injection, schedule: Q01DX005 (ip), vehicle: saline + alcohol",103 % of control
same,T/C,[6],109 % of control
same,T/C,"dose: 50.0 mg/kg/injection, schedule: Q01DX005 (ip), vehicle: saline + alcohol",99 % of control
same,T/C,"dose: 50.0 mg/kg/injection, schedule: Q01DX005 (ip), vehicle: saline with Tween-80",110 % of control and 114 % of control
O=C1C2C3CCC(O3)C2C(=O)N1CCO (configuration not stated),T/C,[3],96 % of control
same,T/C,[4],89 % of control
same,T/C,"dose: 240.0 mg/kg/injection, schedule: Q01DX005 (ip), vehicle: saline",98 % of control
